Key:
[1] = test system: Aβ1-42-induced cognitive impairments; assay: Open field test in Aβ1-42 Alzheimer's disease rat model; format: in vivo, rats; conditions: for number of entries into the center zone: 1 mg/kg i.v. daily 14 days, vs Aβ1-42 group; for total distance / traveling speed: open field, between the four groups
Method: (§1) Aβ1-42 (Sigma-Aldrich, St. Louis, MO, USA;) was dissolved in double-distilled water at the concentration of 5 μg/μl, and incubated at 37° C. for one week before surgery. The rats were randomly divided into four groups as Sham (n=8), Sham+AG-1601 (n=8), Aβ1-42 (n=8) and Aβ1-42+AG-1601 (n=8). The Alzheimer's disease rat models were established by intracerebroventricular (i.c.v.) injection of Aβ1-42 aggregates. The animals were anesthetized with intraperitoneal injection of pentobarbital sodium (50 mg/kg) and placed in a stereotaxic apparatus (Narishige, Japan). The head skin of the rat was opened and two small holes were drilled on both sides of skull following the coordinates: 0.8 mm posterior to bregma, +1.4 mm lateral to sagittal suture, 4.0 mm beneath the surface of brain. Aβ1-42 (2.0 μl per side) was injected bilaterally into the lateral ventricles through micro-syringe. The needle was taken out after 5 minutes of the injection to ensure the aggregates were infused completely. Rats in the Sham group underwent the same operational process, but same volumes of double-distilled water were injected instead of Aβ1-42. After surgery, all rats were injected with penicillin (100,000 U) in the hindquarter muscle to prevent infection. The animals of Sham+AG-1601 and Aβ1-42+AG-1601 groups were intravenous injection with AG-1601 (1 mg/kg), while the same volume vehicle was implemented for the other groups every day for 14 days after one week of the postoperative recovery.
The open field test was carried out to evaluate locomotor activity and exploratory behavior. This test was conducted as described previously with little modifications (Sugita et al., 2015). The open field test consists of a circular apparatus (80 cm in diameter, 30 cm high). The circular apparatus was divided into the center zone (30 cm in diameter in the middle of the arena) and the concentric outer circle zone. Rats were placed individually in the outer circle of the apparatus and allowed to explore freely for 5 min. The path of each rat was tracked by a camera-driven tracker system (Ethovision2.0, Noldus, Wagenigen, Netherlands). The number of entries into the center zone, the total distance and the traveling speed during the testing were analyzed.

T98G cells = assay: Cell viability in TMZ-resistant T98G cells; format: cell-based; conditions: TMZ plus AG-1601
Method: Cells were treated with indicated content of AG-1601 for 48 hours, then followed by performance of cell viability assays. Efficacy of AG-1601 in rat cell (see FIGS. 24A and B), of AG-1601 in human glioma cell see FIGS. 25A and 25B), different batches of AG-1601 in C6 and U251 cells (see FIGS. 26A and 26B), of AG-1601 in C6 and U87 cells (see FIGS. 27A and 27B), of AG-1601, TMZ, and Carmustine in U251 cells (see FIGS. 28A and 28B), and of AG-1601, TMZ, and Carmustine in U87 cells (see FIGS. 29A and 29B). […] Cell viability was determined in T98G cell and U251 cell after treatment with DMSO, TMZ, AG-1601 and TMZ plus AG-1601 (FIG. 30).

PC4 protein = PC4 protein (Homo sapiens, UniProt P53999); assay: PC4-DNA binding interference; conditions: high-throughput screen platform
Method: A number of small molecules were incubated with PC4 protein and DNA binding assessed.

[2] = test system: NR2A, NR2B, PSD-95 and SYP; assay: Western blot of synaptic proteins in hippocampal fractions, Aβ1-42 AD rat model; format: in vivo, rats
Method: as §1
Three rats of each group were randomly selected to be sacrificed and their hippocampal tissues were immediately removed at 0° C. and stored at minus 80° C. For subcellular fractionation, 100- to 200-mg weight rat hippocampal tissue was used. The procedure has been described (Yang et al., 2017). The tissues were homogenized for 30 s in 500 μl TEVP buffer containing 320 mM sucrose and the homogenate was obtained. The homogenate (H) was centrifuged at 900×g for 10 min at 4° C., and the supernatant (S1) was centrifuged for 20 min at 10000×g at 4° C. to obtain the cytosolic/light membrane fraction (S2) and the crude synaptosomal fraction pellet (P2). The pellet was resuspended in TEVP buffer containing 35.6 mM sucrose solution and then centrifuged at 25,000×g for 20 min at 4° C. The supernatant was stored at minus 80° C. and referred as the synaptic vesicular fraction (LS1). The pellet, synaptic plasma membranes (LP1), was resuspended in TEVP buffer containing 1% Triton X-100 and centrifuged at 330,000×g for 30 min at 4° C. The supernatant referred as Triton X-100-soluble fraction (TSF) was stored at minus 80° C. The final pellet, the Triton X-100-insoluble fraction (TIF), was homogenized in TEVP buffer containing 1% SDS.
The concentration of every component was measured by the BCA protein assay kit (Beyotime Biotechnology, China). The components were finally boiled with 4× loading buffer at 100° C. for 15 min and stored at minus 80° C. for Western blot assay.
The total homogenate (H) and synaptosomal fractions were analyzed. Equal amounts of 20 μg from each sample were separated via 10% or 13% SDS-PAGE gels and subsequently transferred onto PVDF membranes (Millipore, USA). The membranes were blocked with 5% nonfat dry milk for 1 h at room temperature and then incubated with primary antibodies (Anti-synaptophysin, 1: 1000, Abcam; Anti-NR 2A, 1: 2000, Abcam; Anti-NR 2B, 1: 2000, Abcam; Anti-PSD-95, 1: 2000, Abcam; Anti-CREB, 1: 2000,Abcam; Anti-CREB phosphorylation, 1: 2000, Abcam; Anti-SIRT1, 1: 2000, Santa Cruz Biotechnology; Anti-β-actin, 1:5000, Santa Cruz Biotechnology) overnight at 4° C. Membranes were then incubated for 1 h at room temperature with horseradish peroxidase-conjugated secondary antibodies (Promega). After washing with TBST buffer, signals were visualized with the HRP substrate (Millipore, USA) and detected with a chemiluminescence kit (Tanon 5500, Tanon Science & Technology, China). The gray-scale value of protein band was quantified by NIH Image J program. […]

[3] = test system: Rat glioblastoma cell lines C6; assay: Cell growth of glioblastoma cell line C6; format: cell-based; conditions: cell growth rate from number of live cells
Method: Rat glioblastoma cell lines C6 (A) and human non-small cell lung cancer cell line H841 (B) were grown in the proper medium and treated with different concentration of drug candidate AG-1031 (P) and AG-1503 (#3). Cell growth rate was calculated based on the number of live cells as compared to concentration in M of selected small molecules of the invention (see FIGS. 6A and 6B).

[4] = total homogenate (H), vs Aβ1-42 group

How did the “number of entries into the center zone” value [1] turn out when C=CC1=C(C)c2cc3[nH]c(cc4nc(cc5[nH]c(cc1n2)c(C)c5C=C)C(C)=C4CCC(=O)O)c(CCC(=O)NCCCc1ccccc1)c3C [AG-1601, 3-(2,8,13,18-tetramethyl-3-(3-oxo-3-((3-phenylpropyl)amino)propyl)-12,17-divinylporphyrin-7-yl)propanoic acid] was run?
Its value is “increased dramatically”.

And the “number of entries into the center zone” value ([1]; listed as AG-1061)?
The value was “increased significantly”.

What about the total distance [1] of the same compound?
Its total distance is “no significant effect”.

And the traveling speed [1]?
Its traveling speed is “no significant effect”.

And the total distance ([1]; listed as AG-1061)?
The total distance was “no significant difference”.

And the traveling speed ([1]; listed as AG-1061)?
The traveling speed was “no significant difference”.

And the “effect on TMZ-resistance” value (T98G cells)?
The value was “Overcomes the Effect of TMZ-resistance”.

What about the PC4 inhibition (PC4 protein) of the same compound?
The PC4 inhibition was “strong PC4 inhibitor”.

What about the NR2A level ([2]; TIF fraction, vs Aβ1-42 group) of the same compound?
The NR2A level was “increased”.

And the NR2B level ([2]; TIF fraction, vs Aβ1-42 group)?
Its NR2B level is “increased”.

And the PSD-95 level ([2]; TIF fraction, vs Aβ1-42 group)?
The PSD-95 level was “increased”.

What about the SYP level ([2]; TSF fraction, vs Aβ1-42 group) of the same compound?
Its SYP level is “also increased”.

What about the SYP expression ([2]; homogenates of hippocampal tissues, vs Aβ42 group) of the same compound?
Its SYP expression is “this effect was overcome”.

What about the NR2A level [2, 4] of the same compound?
Its NR2A level is “increased”.

And the NR2B level [2, 4]?
Its NR2B level is “increased”.

What about the PSD-95 level [2, 4] of the same compound?
The PSD-95 level was “this effect was overcome”.

What about the PSD-95 level ([2]; total homogenate (H), vs Aβ1-42 group, listed as AG-1061) of the same compound?
The PSD-95 level was “increased”.

And the “inhibition of growth of glioma cell line C6” value [3]?
Its value is “even better inhibitory activity on growth of glioma cells compared to AG-1503”.
